Where two headings read alike, the source gives them in different places.
How the values were obtained:
HsEg5 [1] = molecular target: T1, HsEg5 (Homo sapiens, UniProt P52732); assay: Fluorescence detection of HsEg5 ATPase activity (ADP Quest, automated); format: biochemical
T1 sequence (P52732 18-359 limits assumed): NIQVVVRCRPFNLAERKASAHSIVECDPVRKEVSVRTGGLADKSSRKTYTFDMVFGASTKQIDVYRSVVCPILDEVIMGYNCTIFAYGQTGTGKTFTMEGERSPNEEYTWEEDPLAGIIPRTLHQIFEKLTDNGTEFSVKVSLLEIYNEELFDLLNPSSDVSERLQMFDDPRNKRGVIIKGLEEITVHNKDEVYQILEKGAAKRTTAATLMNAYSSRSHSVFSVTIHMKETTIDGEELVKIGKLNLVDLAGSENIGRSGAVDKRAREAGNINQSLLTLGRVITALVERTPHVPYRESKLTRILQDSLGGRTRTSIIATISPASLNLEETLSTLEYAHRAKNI
How it was run: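 Microtubule-activated HsEg5 motor fragment (10 nM, 500 nM MTs) preincubated 10 min with compound, then 20 μM ATP for 10 min at room temperature in Pipes pH 7.0, MgCl2, paclitaxel, 0.3% DMSO. ADP detected via coupled-enzyme resorufin fluorescence; IC50 over 100 μM–5 nM.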

NCI-H460 = assay: MTS cell viability assay; format: cell-based, human; settings: Homo sapiens, NCI-H460, 72 h, read-out: MTS NCI H460 GI50
How it was run: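 GI50 values come from tetrazolium (MTS) absorbance at 490 nm, measured within two hours of SDS addition. Cells had been treated with compound for 72 hours in supplemented DMEM, then given […] PMS 7.67 mg/L for 4 hours.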

A549 = assay: MTS cell viability assay; format: cell-based; settings: Homo sapiens, read-out: MTS NCI A549 GI50
How it was run: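 A549 and a second human cancer line seeded in DMEM/10% FBS, allowed 16–24 h to attach, then exposed 72 h at 37 °C, 5% CO2 to serially diluted compound (final DMSO 0.33%). Viability measured by MTS.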

HsEg5 [2] = molecular target: T1, HsEg5; assay: Luminescent detection of HsEg5 ATPase activity (Kinase-Glo Plus); format: biochemical
Procedure: Purified HsEg5 motor fragment was activated by mixture with preformed MT polymer (Cytoskeleton, Denver, Colo.) at room temperature for 20 minutes. MT activated ATPase activity was measured using Kinase-Glo® Plus Luminescent Kinase Assay (Promega, Madison, Wis.).
For inhibitor screening, 5 μL of compounds were incubated with 20 μL of MT-activated HsEg5 such that the final concentrations for compound range from 100 μM to 5 nM (1 to 3 serial dilutions, final concentration) and final concentration for HsEg5 is 25 nM. The mixture was incubated at room temperature for 20 minutes with mild shaking. The screening assay contained 0.3% DMSO in all reaction wells. We used wells containing only DMSO as negative controls and wells without ATP as background. Addition of 15 μL of 13 μM ATP (final concentration of 5 μM) initiated the ATP hydrolysis reaction. The 40 μL-reaction was allowed to proceed at room temperature for 45 minutes before addition of 40 μL of Kinase®-Glo Plus. After 15-minute development at room temperature, the luminescent was measured.
Eg5 IC50 data was generated using both fluorescence and Luminescence detection assays as described above. Compounds I-69 were screened using automated fluorescence assay while compounds 70-83 were screened using Luminescence detection assay. (See reference “Zhang B, Senator D, Wilson C J, Ng S C. (2005) “Development of a high-throughput robotic fluorescence-based assay for HsEg5 inhibitor screening” Anal Biochem. 345:326-335″).

[3] = A549 non small cell lung, 72 hours

| IC50 (HsEg5 [2]) [nM] | Structure (SMILES) | IC50 (HsEg5 [1]) [nM] | GI50 (NCI-H460) [nM] | GI50 (A549; [3]) [nM] | GI50 (A549; A549, 72 h) [nM] |
| --- | --- | --- | --- | --- | --- |
| – | CCC(c1nc2cc(Cl)ccc2c(=O)n1Nc1ccccc1)N(CCN)C(=O)c1cccc(Cl)c1F (stereo not shown) [Compound 64, N-(2-Aminoethyl)-N-[1-(3-anilino-7-chloro-4-oxo-3,4-dihydroquinazolin-2-yl)propyl]-3-chloro-2-fluorobenzamide] | 1460 | 6810 | 12600 | – |
| – | CCC(c1nc2cc(Cl)ccc2c(=O)n1Nc1ccccc1)N(CCN)C(=O)c1ccc(C)c(F)c1F (stereo not shown) [Compound 65, N-(2-Aminoethyl)-N-[1-(3-anilino-7-chloro-4-oxo-3,4-dihydroquinazolin-2-yl)propyl]-2,3-difluoro-4-methylbenzamide] | 4080 | 11400 | 12400 | – |
| – | CCC(c1nc2cc(Cl)ccc2c(=O)n1Nc1ccccc1)N(CCCN)Cc1ccc(C)cc1 (stereo not shown) [Compound 67, 2-{1-[(3-Aminopropyl)(4-methyl-benzyl)amino]propyl}-3-anilino-7-chloro-3H-quinazolin-4-one] | 8300 | 13100 | 15500 | – |
| 160 | C#CC[C@H](c1nc2cc(Cl)ccc2c(=O)n1Nc1ccccc1)N(CCCN)C(=O)c1c(F)c(F)cc(F)c1F [Compound 71] | – | 320 | – | 840 |
| 40 | C#CC[C@H](c1nc2cc(Cl)ccc2c(=O)n1Nc1ccccc1)N(CCCN)C(=O)c1cc(F)c(F)c(F)c1F [Compound 72, (R)—N-(3-Aminopropyl)-N-(1-(7-chloro-4-oxo-3-(phenylamino)-3,4-dihydroquinazolin-2-yl)but-3-ynyl)-2,3,4,5-tetrafluorobenzamide] | – | 330 | – | 620 |
| 120 | C#CC[C@H](c1nc2cc(Cl)ccc2c(=O)n1Nc1ccccc1)N(CCCN)C(=O)c1cc2ccccc2s1 [Compound 73, (R)—N-(3-Aminopropyl)-N-(1-(7-chloro-4-oxo-3-(phenylamino)-3,4-dihydroquinazolin-2-yl)but-3-ynyl)benzo[b]thiophene-2-carboxamide] | – | 330 | – | 490 |
| 5900 | CC#CCC(c1nc2cc(Cl)ccc2c(=O)n1Nc1ccccc1)N(CCCN)C(=O)c1cccc(Cl)c1F (stereo not shown) [Compound 74, N-(3-Aminopropyl)-3-chloro-N-(1-(7-chloro-4-oxo-3-(phenylamino)-3,4-dihydroquinazolin-2-yl)pent-3-ynyl)-2-fluorobenzamide] | – | 1230 | – | 1800 |
| 90 | C#CC[C@H](c1nc2cc(Cl)ccc2c(=O)n1Nc1ccccc1)N(CCCN)C(=O)c1ccc(C)cc1 [Compound 75, N-(3-Amino-propyl)-N—[(R)-1-(7-chloro-4-oxo-3-phenylamino-3,4-dihydro-quinazolin-2-yl)-but-3-ynyl]-4-methyl-benzamide] | – | 1500 | – | 2800 |
| 130 | C#CC[C@H](c1nc2cc(Cl)ccc2c(=O)n1Nc1ccccc1)N(CCCN)C(=O)c1ccc(C)c(F)c1F [Compound 76, N-(3-Amino-propyl)-N—[(R)-1-(7-chloro-4-oxo-3-phenylamino-3,4-dihydro-quinazolin-2-yl)-but-3-ynyl]-2,3-difluoro-4-methyl-benzamide] | – | 860 | – | 1300 |
| 70 | C#CC[C@H](c1nc2cc(Cl)ccc2c(=O)n1Nc1ccccc1)N(CCCN)C(=O)c1c(OC)ccc(F)c1F [Compound 77] | – | 530 | – | 860 |
| 40 | C#CC[C@H](c1nc2cc(Cl)ccc2c(=O)n1Nc1ccccc1)N(CCCN)C(=O)c1ccc(OC)c(F)c1F [Compound 78] | – | 700 | – | 1450 |
| 550 | C#CC[C@H](c1nc2cc(Cl)ccc2c(=O)n1Nc1ccccc1)N(CCCN)C(=O)c1c(F)cc(Cl)cc1F [Compound 79] | – | 430 | – | 1300 |
| 90 | C#CC[C@H](c1nc2cc(Cl)ccc2c(=O)n1Nc1ccccc1)N(CCCN)C(=O)c1cc(F)cc(F)c1 [Compound 80, (R)—N-(3-Aminopropyl)-N-(1-(7-chloro-4-oxo-3-(phenylamino)-3,4-dihydroquinazolin-2-yl)but-3-ynyl)-3,5-difluorobenzamide] | – | 100 | – | 580 |
| 160 | C#CC[C@H](c1nc2cc(Cl)ccc2c(=O)n1Nc1ccccc1)N(CCCN)C(=O)c1cc(F)cc(F)c1F [Compound 81, (R)—N-(3-Aminopropyl)-N-(1-(7-chloro-4-oxo-3-(phenylamino)-3,4-dihydroquinazolin-2-yl)but-3-ynyl)-2,3,5-trifluorobenzamide] | – | 340 | – | 660 |
| 30 | C#CC[C@H](c1nc2cc(Cl)ccc2c(=O)n1Nc1ccccc1)N(CCCN)C(=O)c1cccc(F)c1F [Compound 82, (R)—N-(3-Aminopropyl)-N-(1-(7-chloro-4-oxo-3-(phenylamino)-3,4-dihydroquinazolin-2-yl)but-3-ynyl)-2,3-difluorobenzamide] | – | – | – | – |
| 6600 | C#CC[C@H](c1nc2cccnc2c(=O)n1Nc1ccccc1)N(CCCN)C(=O)c1cccc(Cl)c1F [Compound 83, (R)—N-(3-Aminopropyl)-3-chloro-2-fluoro-N-(1-(4-oxo-3-(phenylamino)-3,4-dihydropyrido[3,2-d]pyrimidin-2-yl)but-3-ynyl)benzamide] | – | 27000 | – | > 100000 |

Reference: US20110217300A1, “Quinazolinone Compounds and Methods of Use Thereof” (priority 2007, published 2011)
